# Experiments:
# [1] = tested on: primary rat calvaria (RC) cells; assay: Cell number (cell counting) in RC cell cultures treated with ERRα antisense/sense oligonucleotides; type: cell-based
# Description: (§1) Cells were enzymatically isolated from the calvaria of 21 d Wistar rat fetuses by sequential digestion with collagenase as described previously (Bellows, 1986). Cells obtained from the last four of the five digestion steps (populations II-V) were pooled and plated in T-75 flasks in α-MEM containing 15% heat-inactivated FBS (Flow Laboratories, McLean, Va.) and antibiotics comprising […] penicillin G (Sigma Chemical Co., St. Louis, Mo.), […] gentamycin (Sigma), and […] fungizone (Flow Laboratories). After 24 h incubation, attached cells were washed with PBS to remove nonviable cells and other debris, and then collected by trypsinization using 0.01% trypsin in citrate saline. Aliquots were counted with a Coulter Counter (Coulter Electronics, Hialeah Fla.), and the remaining cells were resuspended in the standard medium described above. The resuspended cells were plated into 100 mm tissue culture dishes at 10^5 cells/dish, into 35 mm tissue culture dishes at 2×10^4/dish and in 24 wells plates at 10^4 cells/well. […] Medium was changed every 2 days. All dishes were incubated at 37° C. in a humidified atmosphere in a 95% air/5% CO2 incubator.
# For cell growth analysis, the cell layers were rinsed in PBS, released with trypsin and collagenase (1:1, vol/vol, of solutions described above), and the harvested cells were counted electronically. Results are plotted as the average of three counts for each of three dishes for control and pcDNA3-ERRα or three wells for each concentration of antisense or sense primers used.
# (§2) The resuspended RC cells were plated in 24 wells plates at 10^4 cells/well. Antisense oligonucleotide inhibition of ERRα expression was accomplished with a 20-base phosphorotbioate-modified oligonucleotide, localized to the A/B domain. The ERRα antisense oligonucleatide sequence was: 5′[…]-3′(SEQ ID NO:30). Control dishes were treated with the complementary sense oligonucleotide or no oligonucleotide. Preliminary experiments were done to determine effective oligonucleotide concentrations that were not toxic. […] Medium was changed every 2 days and fresh oligonucleotides were added. mRNA was collected at day 6 for the proliferation experiments and at day 15 for the differentiation experiments. Nodules were counted at 15 days.
# [2] = tested on: primary rat calvaria (RC) cells; assay: Mineralized bone nodule formation (von Kossa) in RC cell cultures treated with antisense/sense oligonucleotides; type: cell-based; details: for decrease in mineralized bone nodule formation: treated day 5 to day 11; for decrease in mineralized bone nodule number: treated days 1-6 then normal differentiation medium, day 15
# Description: as §1
# For quantification of nodule formation, dishes or wells were fixed and stained by the Von Kossa technique and bone nodules were counted on a grid (Bellows et al., 1986; Bellows and Aubin, 1989). Results are plotted as the mean number of nodules±SD of three wells for controls and each concentration of antisense or sense primers and five dishes for pcDNA3 control and pcDNA3-ERRα.
# as §2
# [3] = tested on: ALP, BSP, OPN, OCN, cbfa1, COLLI, Cyclin D1, c-Fos, Bcl2, Bax; assay: RT-PCR of osteoblast, proliferation and apoptosis markers in antisense-treated RC cells; type: cell-based, rat
# Description: Samples of total cellular RNA (1.5-5 μg) were reverse-transcribed using oligo dT and the first strand synthesis kit of Superscript™ II, Gibco BRL. PCR was performed with specific primers specific for ERRα. Primers, located in different exons, were as follows: […]
# Osteoblast-associated and other markers were also amplified by PCR using specific primers for rat OCN, OPN, ALP, BSP, Cbfa1, COLL I (collagen type I α chain), C-fos, Cyclin D1, Bax and Bcl-2. PCR was done for 25 cycles (94° C. for 1 min, 55° C. for 1 min, 72° C. for 1 min and a final elongation step of 7 min at 72° C.) for OCN, OPN, ALP, BSP, L32, Bax and 30 cycles for Bcl-2, 32 cycles for c-Fos, 35 cycles for Cyclin D1 and Cbfa1 (with annealing temperatures of 58° C. and 62° C. respectively and 23 cycles for COLLI with annealing temperature of 59° C.
# as §2
# ERRα = assay: Immunocytochemistry for ERRα on bone nodules after oligonucleotide treatment; type: cell-based, rat; details: 24 h of treatment; 1 μM
# Description: Immunolabelling of cultures was done essentially as described previously (Turksen, 1991; Turksen, 1992). Cultures were rinsed with PBS, fixed with 3.7% formaldehyde in PBS and permeabilized with methanol at −20° C. Frozen sections were fixed 10 min in cold acetone. Paraffine sections were treated deparaffined in xylene, then rehydrated in 100%, 95% and 70% ethanol and water. After rinsing, cells in dishes or frozen, paraffine sections were incubated for 1 h at room temperature with 10% normal serum in PBS for ERRα and ERα and in 3% BSA in PBS (denaturated) for ERβ OCN, ALP, OPN, and BSP. After rinsing, cells or sections were incubated for 1.5 hours with appropriate dilutions of primary antibodies (1/50, anti-ERRα; anti-ERα or anti-ERβ (MC-20 or Y-19, respectively; Santa Cruz Biotechnology, Inc))(Shim et al, 1999; Saji et al, 2000; Tremblay et al 1999). The anti-rat OCN antiserum was kindly provided by Dominique Modrowski (INSERM U349, Hopital Lariboisiere, Paris, France) and used at 1/100 dilution. The anti-OPN MPIIIB10) and anti-BSP (WWVIDI) antibodies were purchased from the Hybridoma Bank (Iowa City, Iowa) and used at a 1/800 and 1/500 dilution respectively. […]
# ERRα mRNA = ERRα mRNA expression (Northern blot) in RC cells treated with hormones or growth factors; type: cell-based, rat; details: for effect of acute exposure on ERRα mRNA levels: 24 hours beginning at day 9 or day 15 (E2, D3) or day 7 and day 15 (TGFβ); for stimulation of ERRα mRNA expression at times later than day 6 / stimulation (increase) of ERRα mRNA expression: RC cells treated continuously; for stimulation (increase) of ERRα mRNA expression: E2 10^−8M, D3 10^−9M, TGFβ 10^−10 M
# Description: as §1
# Total RNA was extracted with guanidine from RC cells at different times of the culture corresponding to different stages of proliferation, differentiation and bone nodule formation (Current Protocols in Molecular Biology, vol. 1, 1996). Northern blots were prepared and hybridized with a 750bp fragment corresponding to the rat 3′ UTR of ERRα according to standard procedures (Chirgwin et al, 1979). Rat α1 COLL-I (Genovese et al.) was a 900bp cDNA PstI fragment containing the entire 3′ noncoding region and one-half of the C-terminal of the propeptide of the α1 chain of type I. Rat bone/liver/kidney ALP (Noda et al., 1987) was a 600 bp cDNA EcoRI fragment obtained by digesting pRAP54 with BssHII-XhoI to remove 1.8 kb of the 5′ region and religating the blunt ends. Rat OPN was a 700 bp cDNA BamHI-EcoRI fragment obtained by digesting the full length cDNA with PvuI to remove 800 bp of 5′ region and ligating the blunt ended fragment into SmaI cut pGEM-7Zf(+) vector (Promega, Madison, Wis.). Rat OCN was a partial cDNA containing 350 bp of the 3′ UTR isolated with OCN-specific primers from a λgt11 library prepared from ROS 17/2.8 cells, rat BSP was a partial cDNA containing 500bp of 3′ region isolated with BSP-specific primers from a λgt11 library prepared from RC cells forming bone nodules, and rat L32 was generated from RC cell mRNA by PCR using specifics primers; the identities of the OCN, BSP and L32 probes were confirmed by sequencing (Liu et al., 1994).
# [4] = treated days 1-6, day 15, vs control or sense-treated
molecule,measurement,setting,value
"5′TCACCGGGGGTTCAGTCTCA-3′(SEQ ID NO:30) (all phosphorothioate, sugars by position and methylation of C not given here) [antisense oligonucleotide]",decrease in cell number,"[1]; RC cells treated days 1-6, counted at day 6, 1 μM, vs sense or untreated controls",30%
same,decrease in cell number,"[1]; RC cells treated days 1-6, counted at day 6, 2 μM, vs sense or untreated controls",40%
same,decrease in cell number,"[1]; treated day 5 to day 11, by day 15, 1 μM",19%
same,decrease in cell number,"[1]; treated day 5 to day 11, by day 15, 2 μM",35%
same,decrease in mineralized bone nodule formation,[2]; 0.5 μM,30%
same,decrease in mineralized bone nodule formation,[2]; 1 μM,60%
same,decrease in mineralized bone nodule formation,[2]; 2 μM,100%
same,decrease in mineralized bone nodule number,[2]; 1 μM,29%
same,decrease in mineralized bone nodule number,[2]; 2 μM,45%
same,decrease in the number of mineralized bone nodules formed,"[2]; treated days 9-15, 1 μM",17%
same,decrease in the number of mineralized bone nodules formed,"[2]; treated days 9-15, 2 μM",27%
same,surface area covered by bone nodules that did form,"[2]; treated days 9-15, compared to control cultures",greater surface area
same,ALP expression,[3]; treated day 5 to day 11,not affected
same,BSP expression,[3]; treated day 5 to day 11,decreased
same,COLLI expression,[3]; treated day 5 to day 11,not affected
same,OCN expression,[3]; treated day 5 to day 11,decreased
same,OPN expression,[3]; treated day 5 to day 11,not affected
same,cbfa1 expression,[3]; treated day 5 to day 11,decreased
same,ALP expression,"[3]; treated days 1-6, day 6",not significantly affected
same,BSP expression,"[3]; treated days 1-6, day 6",reduced significantly
same,Bax expression,"[3]; treated days 1-6, day 6",not significantly affected
same,Bcl2 expression,"[3]; treated days 1-6, day 6",not significantly affected
same,COLLI expression,"[3]; treated days 1-6, day 6",not significantly affected
same,Cyclin D1 expression,"[3]; treated days 1-6, day 6",reduced but it did not reach statistical significance
same,OPN expression,"[3]; treated days 1-6, day 6",not significantly affected
same,c-Fos expression,"[3]; treated days 1-6, day 6",not significantly affected
same,cbfa1 expression,"[3]; treated days 1-6, day 6",reduced significantly
same,COLLI expression,"[3]; treated days 1-6, day 15",not significantly altered
same,OCN expression,"[3]; treated days 1-6, day 15",not significantly altered
same,OPN expression,"[3]; treated days 1-6, day 15",not significantly altered
same,ALP expression,[3]; [4],remained lower
same,BSP expression,[3]; [4],remained lower
same,ALP expression,[3]; treated days 9-15,"not BSP, COLLI or ALP were decreased"
same,BSP expression,[3]; treated days 9-15,"not BSP, COLLI or ALP were decreased"
same,COLLI expression,[3]; treated days 9-15,"not BSP, COLLI or ALP were decreased"
same,OCN expression,[3]; treated days 9-15,decreased
same,OPN expression,[3]; treated days 9-15,decreased
same,ERRα detection in bone nodules,ERRα,almost undetectable
"C=C1/C(=C\C=C2/CCC[C@]3(C)[C@@H]([C@H](C)CCCC(C)(C)O)CC[C@@H]23)C[C@@H](O)C[C@@H]1O [D3, 1,25(OH)2 vitamin D3]",effect of acute exposure on ERRα mRNA levels,ERRα mRNA,no effect
same,stimulation of ERRα mRNA expression at times later than day 6,ERRα mRNA,not later
same,stimulation (increase) of ERRα mRNA expression,ERRα mRNA; day 6,47%
"C[C@@H]1C[C@H]2[C@@H]3CCC4=CC(=O)C=C[C@]4(C)[C@@]3(F)[C@@H](O)C[C@]2(C)[C@@]1(O)C(=O)CO [Dex, dexamethasone]",effect of acute treatment on ERRα expression level,ERRα mRNA; 24 hour acute treatment of RC cells at day 9 or day 15,no effect
CCCCC[C@H](O)/C=C/[C@H]1[C@H](O)CC(=O)[C@@H]1C/C=C\CCCC(=O)O [PGE2],effect on ERRα expression,"ERRα mRNA; RC cells, PGE2 10^−9 M, Dex",Neither PGE2 nor Dex had any significant effect
PTH-1-34: 1-34 PTH (Sigma),decrease of ERRα after acute exposure,ERRα mRNA; acute exposure at day 7,25%
same,decrease of ERRα after acute exposure,ERRα mRNA; acute exposure at day 16,33%
same,inhibition of ERRα,"ERRα mRNA; continuous 10^−11 M, day 6",15%
same,increase of ERRα,"ERRα mRNA; continuous 10^−11 M, day 12",20%
same,inhibition of ERRα,"ERRα mRNA; continuous 10^−11 M, day 15",26%
TGFβ,effect of acute exposure on ERRα mRNA levels,ERRα mRNA,no effect
same,stimulation of ERRα mRNA expression at times later than day 6,ERRα mRNA,not later
same,stimulation (increase) of ERRα mRNA expression,ERRα mRNA; day 6,400%

# Reference: patent US7585637B2, “Estrogen related receptor, ERRα, a regulator of bone formation” (priority 1999, dated 2009)
